{
  "source": "patent US11773368B2",
  "about": "“Culture method for differentiating primordial germ cells into functionally mature oocytes” (TOKYO UNIVERSITY OF AGRICULTURE, priority 2015, dated 2023)",
  "key": {"in vitro-matured eggs": {"system": "in vitro-matured eggs", "assay": "In vitro fertilization and embryo transfer with in vitro-mature egg", "format": "cell-based, mouse", "description": "After 17 hours of the culture, the eggs with expanded cumulus cells were transferred into TYH medium (LSI Medience Corporation) and fertilized with epididymal sperm. In (ii) SPS group, (iv) FBS/SPS group, (v) FBS/ICI group, about 27 to 58% of eggs which processed for in vitro fertilization (IVF) were normally fertilized. Normally fertilized eggs with 2 pronuclei were cultured in KSOM medium. About 83 to 97% Embryos from the fertilized eggs developed to the 2-cell stage. The embryos developed to the 2-cell stage by the culture were transferred into the oviducts of pseudopregnant females at 0.5 dpc. Offspring were delivered by natural means or by caesarean section at 19.5 dpc. As a result, about 14 to 40% of the transferred embryos developed to offspring. The obtained offspring were raised by foster mothers. The offspring were weaned at about 4 weeks of age. […] As mentioned above, there has been no report that eggs obtained by in vitro culture in which the primordial germ cell was used as the starting material developed to offspring. […] In in vitro culture method for producing the functional egg from the primordial germ cell according to this invention, seven pups from one ovary were obtained at a maximum, and on average, 0.3 to 3.3 pups were obtained from one ovary. Pups were physically normal, and they developed normally. Male and female mice developed from eggs differentiated and matured in in vitro culture could produce the offspring after sexual maturation (Table. 2 and FIG. 12)."}, "[1]": {"system": "secondary follicles from in vitro cultured gonads", "assay": "In vitro growth culture of secondary follicle", "format": "cell-based, mouse", "description": "The secondary follicles obtained by the in vitro organ culture of the gonads from the fetuses was processed for in vitro growth culture. […] In this example, the culture was performed with the medium supplemented with PVP which is the high-molecular-weight compound. Furthermore, the inventor found out that oocytes can develop to functional eggs by dissociating a part of the cell layers between a granulosa cell layer and a thecal cell layer which constitute a secondary follicle. Accordingly, in this example, the in vitro culture of the follicle includes a step of partial dissociation between the granulosa cell layer and the thecal cell layer. More concretely, the in vitro culture of the follicle was performed as follows.\nAfter the culture of “1. In vitro organ culture of gonad” for 17 days mentioned above, the cultured gonads (ovaries) were transferred to L15 medium and the secondary follicles formed in the gonads were isolated from the gonads, using a fine Tungsten needle. The secondary follicles were further cultured in α-MEM supplemented with 2% (w/v) PVP, 5% FBS, and 0.1 IU/mL FSH (FOLLISTIM Injection 50; MSD). The secondary follicles were cultured on a Millicell membrane (0.4-μm pore size, 27-mm diameter; Merck Millipore) in a 35-mm culture dish (Falcon, Corning). On day 3 of the culture, the secondary follicles were transferred to 0.1% collagenase type I (Worthington Biochemicals) containing L15 medium and treated for 15 min at 37° C. Then, the theca cell layer of the secondary follicles was removed by pipetting with a pulled fine-glass capillary. Fifty to 60 secondary follicles were cultured on Transwell®-COL or Millicell membranes for another 9 to 13 days at 37° C. in the medium under 5% CO2 and 95% air. The inside and outside of the membrane insert were filled with 1 mL and 2 mL medium, respectively. Approximately half the medium in each well was replaced with fresh medium every other day."}, "[2]": {"settings": "FBS/1 μM ICI group (ICI day 5-11)"}, "[3]": {"settings": "FBS/1 μM ICI group (ICI day 5-11), 19 cultured gonads"}, "[4]": {"settings": "FBS/5 μM ICI group (ICI day 5-11)"}, "[5]": {"settings": "FBS/5 μM ICI group (ICI day 5-11), 6 cultured gonads"}, "[6]": {"settings": "FBS/10 μM ICI group (ICI day 5-11)"}, "[7]": {"settings": "FBS/10 μM ICI group (ICI day 5-11), 6 cultured gonads"}, "[8]": {"settings": "Vitrification FBS/1 μM ICI (vitrified-warmed gonads)"}, "[9]": {"settings": "Vitrification FBS/1 μM ICI (vitrified-warmed gonads), 4 cultured gonads"}},
  "data": [
    {"smiles": "C[C@]12CC[C@@H]3c4ccc(O)cc4C[C@@H](CCCCCCCCC[S+]([O-])CCCC(F)(F)C(F)(F)F)[C@H]3[C@@H]1CC[C@@H]2O", "note": "(stereo partly drawn) [ICI, 7α, 17β-[9-([4,4,5,5,5-pentafluoropentyl]sulfinyl)nonyl]estra-1,3,5(10)-triene-3,17-diol]", "values": [
      {"measurement": "No. of eggs fertilized normally, proportion to the number of collected follicles", "setting": "in vitro-matured eggs; [2]", "value": 26.2, "unit": "%"},
      {"measurement": "No. of embryos developed to two-cell, proportion to the number of collected follicles", "setting": "in vitro-matured eggs; [2]", "value": 24.2, "unit": "%"},
      {"measurement": "No. of pups developed from embryos, proportion to the number of collected follicles", "setting": "in vitro-matured eggs; [2]", "value": 4.8, "unit": "%"},
      {"measurement": "No. of pups from an ovary", "setting": "in vitro-matured eggs; [2]", "value": 1.6},
      {"measurement": "No. of eggs fertilized normally", "setting": "in vitro-matured eggs; [3]", "value": 168},
      {"measurement": "No. of embryos developed to two-cell", "setting": "in vitro-matured eggs; [3]", "value": 155},
      {"measurement": "No. of pups developed from embryos", "setting": "in vitro-matured eggs; [3]", "value": 31},
      {"measurement": "No. of eggs fertilized normally, proportion to the number of collected follicles", "setting": "in vitro-matured eggs; [4]", "value": 30.1, "unit": "%"},
      {"measurement": "No. of embryos developed to two-cell, proportion to the number of collected follicles", "setting": "in vitro-matured eggs; [4]", "value": 29.2, "unit": "%"},
      {"measurement": "No. of pups developed from embryos, proportion to the number of collected follicles", "setting": "in vitro-matured eggs; [4]", "value": 6.4, "unit": "%"},
      {"measurement": "No. of pups from an ovary", "setting": "in vitro-matured eggs; [4]", "value": 3.3},
      {"measurement": "No. of eggs fertilized normally", "setting": "in vitro-matured eggs; [5]", "value": 94},
      {"measurement": "No. of embryos developed to two-cell", "setting": "in vitro-matured eggs; [5]", "value": 91},
      {"measurement": "No. of pups developed from embryos", "setting": "in vitro-matured eggs; [5]", "value": 20},
      {"measurement": "No. of eggs fertilized normally, proportion to the number of collected follicles", "setting": "in vitro-matured eggs; [6]", "value": 29.3, "unit": "%"},
      {"measurement": "No. of embryos developed to two-cell, proportion to the number of collected follicles", "setting": "in vitro-matured eggs; [6]", "value": 27.3, "unit": "%"},
      {"measurement": "No. of pups developed from embryos, proportion to the number of collected follicles", "setting": "in vitro-matured eggs; [6]", "value": 3.8, "unit": "%"},
      {"measurement": "No. of pups from an ovary", "setting": "in vitro-matured eggs; [6]", "value": 3.2},
      {"measurement": "No. of eggs fertilized normally", "setting": "in vitro-matured eggs; [7]", "value": 148},
      {"measurement": "No. of embryos developed to two-cell", "setting": "in vitro-matured eggs; [7]", "value": 138},
      {"measurement": "No. of pups developed from embryos", "setting": "in vitro-matured eggs; [7]", "value": 19},
      {"measurement": "No. of eggs fertilized normally, proportion to the number of collected follicles", "setting": "in vitro-matured eggs; [8]", "value": 33.3, "unit": "%"},
      {"measurement": "No. of embryos developed to two-cell, proportion to the number of collected follicles", "setting": "in vitro-matured eggs; [8]", "value": 26.3, "unit": "%"},
      {"measurement": "No. of pups developed from embryos, proportion to the number of collected follicles", "setting": "in vitro-matured eggs; [8]", "value": 3.5, "unit": "%"},
      {"measurement": "No. of pups from an ovary", "setting": "in vitro-matured eggs; [8]", "value": 0.5},
      {"measurement": "No. of eggs fertilized normally", "setting": "in vitro-matured eggs; [9]", "value": 19},
      {"measurement": "No. of embryos developed to two-cell", "setting": "in vitro-matured eggs; [9]", "value": 15},
      {"measurement": "No. of pups developed from embryos", "setting": "in vitro-matured eggs; [9]", "value": 2},
      {"measurement": "No. of collected COCs, proportion to the number of collected follicles", "setting": "[1]; [2]", "value": 53.0, "unit": "%"},
      {"measurement": "No. of collected COCs", "setting": "[1]; [3]", "value": 340},
      {"measurement": "No. of collected COCs, proportion to the number of collected follicles", "setting": "[1]; [4]", "value": 57.1, "unit": "%"},
      {"measurement": "No. of collected COCs", "setting": "[1]; [5]", "value": 178},
      {"measurement": "No. of collected COCs, proportion to the number of collected follicles", "setting": "[1]; [6]", "value": 55.6, "unit": "%"},
      {"measurement": "No. of collected COCs", "setting": "[1]; [7]", "value": 281},
      {"measurement": "average diameter of the oocytes obtained by the in vitro culture", "setting": "[1]; FBS/10 μM ICI group, n=85", "value": 80.0, "unit": "μm"},
      {"measurement": "No. of collected COCs, proportion to the number of collected follicles", "setting": "[1]; [8]", "value": 68.4, "unit": "%"},
      {"measurement": "No. of collected COCs", "setting": "[1]; [9]", "value": 39}
    ]}
  ]
}
